The values below come from patent publication US20080063714A1, “Compositions for Encapsulation and Controlled Release” (priority 2003, published 2008).

Data set [1] can be described thus: Penicillin G degradation in acidic solution pH 2.0. The settings on record: pH 2.0, 2 hours, 37° C. Type of data set: physicochemical. From the text: For example, particles of the present invention can protect penicillin G from degradation in acidic environments. When exposed to an acidic environment, such as a solution with pH less than about 5.0, penicillin G is rapidly degraded. […] Penicillin G may be encapsulated in particles of the present invention, such as those comprising triazine derivatives of formula I, and protected from degradation in acidic environment. For example, penicillin G encapsulated in crosslinked particles comprising 4-{[4-(4-carboxyanilino)-6-(3-methyl-1H-imidazol-3-ium-1-yl)-1,3,5-triazin-2-yl]amino}benzoate and a mixture of magnesium and aluminum cations may be exposed to an acidic solution with a pH of 2.0 for 2 hours at 37° C.

A further data set deals with T1, adenosine deaminase (Bos taurus, UniProt P56658).
T1 construct: purchased Sigma lot no; 70H8145 (catalogue number not given)
T1 sequence (P56658 2-363 limits assumed): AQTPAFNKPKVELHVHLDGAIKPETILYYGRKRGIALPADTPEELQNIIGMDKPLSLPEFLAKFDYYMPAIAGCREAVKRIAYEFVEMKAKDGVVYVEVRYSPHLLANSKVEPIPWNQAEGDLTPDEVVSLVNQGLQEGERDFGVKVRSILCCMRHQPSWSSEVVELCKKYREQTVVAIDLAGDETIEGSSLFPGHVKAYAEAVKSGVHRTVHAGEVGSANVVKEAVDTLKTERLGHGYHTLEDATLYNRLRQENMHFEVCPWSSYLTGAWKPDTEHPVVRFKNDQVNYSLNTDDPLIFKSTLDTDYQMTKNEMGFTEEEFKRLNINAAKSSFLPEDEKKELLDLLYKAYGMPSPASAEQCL
In words: Adenosine deaminase activity (inosine by HPLC) after exposure to acid or water. Type of data set: biochemical. The settings on record: after 2 hours in 0.1% trifluoroacetic acid pH 2.0 at room temperature. As to the method: One portion of the beads was added to a vial containing 20 ml of a 0.1% trifluoroacetic acid in water (pH of 2.0) test solution. The beads were exposed to the acidic test solution at room temperature for two hours. The acidic test solution was then decanted and discarded. The beads were rinsed with 10 mL deionized water. The water was then decanted and discarded. Phosphate buffer (20 mL, pH of 7.0 with 0.15 M NaCl) was added to the vial with the remaining beads and the vial was agitated on a wrist action shaker for one hour to dissolve the beads. The resulting solution was filtered through a 0.22 μm poly(vinylidene fluoride) filter.
The inosine peak area was 733 units.
The other portion of the beads was added to a vial containing 20 mL of deionized water (pH approx. 7.5). The beads were exposed to the water solution for two hours. The water was then decanted and discarded. Phosphate buffer (20 mL, pH of 7.0 with 0.15 M NaCl) was added to the vial with the remaining beads and the vial was agitated on a wrist action shaker for one hour to dissolve the beads. […] Adenosine deaminase activity was determined as described above. […]
Adenosine deaminase was added to a 20 mL of 0.1% trifluoroacetic acid in water (pH of 2.0) solution to prepare an acidic test solution with a concentration of approximately 110 μg/mL adenosine deaminase. […] Adenosine deaminase activity was determined as described above. […]

Take `CC1(C)S[C@@H]2[C@H](NC(=O)Cc3ccccc3)C(=O)N2[C@H]1C(=O)O` [Penicillin G]: the “Degradation of penicillin G in acidic solution” value in data set [1] was “almost completely degraded”.

B1: Comparative Example: Unencapsulated adenosine deaminase, approximately 110 μg/mL in 0.1% trifluoroacetic acid in water (pH 2.0) (protein, UniProt P56658 2-363, looked up)
Adenosine deaminase: AQTPAFNKPKVELHVHLDGAIKPETILYYGRKRGIALPADTPEELQNIIGMDKPLSLPEFLAKFDYYMPAIAGCREAVKRIAYEFVEMKAKDGVVYVEVRYSPHLLANSKVEPIPWNQAEGDLTPDEVVSLVNQGLQEGERDFGVKVRSILCCMRHQPSWSSEVVELCKKYREQTVVAIDLAGDETIEGSSLFPGHVKAYAEAVKSGVHRTVHAGEVGSANVVKEAVDTLKTERLGHGYHTLEDATLYNRLRQENMHFEVCPWSSYLTGAWKPDTEHPVVRFKNDQVNYSLNTDDPLIFKSTLDTDYQMTKNEMGFTEEEFKRLNINAAKSSFLPEDEKKELLDLLYKAYGMPSPASAEQCL
B1: the “Adenosine deaminase activity, inosine peak area” value with adenosine deaminase is given as 5 units.
